In patent US20220387602A1, “BIFUNCTIONAL DEGRADERS AND THEIR METHODS OF USE” (NOVARTIS AG, priority 2019, published 2022):

Experiments:
[1] = system: HEK293 and TMD8 cells; assay: Proteomics experiment (TMT quantification mass spectrometry of protein abundance); assay type: cell-based; details: 1 μM, 6 hours, FIG. 3E
Procedure: HEK293 and TMD8 cells were treated with 1 μM dasatinib, 1 μM compound 06, 1 μM compound 07 or DMSO and protein abundance was analyzed using TMT quantification mass spectrometry. Significant changes were assessed by limma, log 2 fold changes are shown on the x-axis and p-values on the y-axis. Proteins with kinase annotations in UniProt are shown as squares and kinases with a log2 fold change≤−0.6 and a p-value≤0.01 are labeled with the corresponding gene name.
HEK293 and TMD8 cells were treated for 6 hours with DMSO (3 replicates), 1 μM dasatinib (2 replicates), 1 μM compound 06 (3 replicates) and 1 μM compound 07 (3 replicates), respectively. TMT11plex-labeled peptides were generated with the PreOmics iST-NHS kit according to the manufacturer's protocol (PreOmics, Germany). […] The 24 fractions were analyzed with a 25 cm×75 μm ID, 1.6 μm C18 Aurora Series emitter column (IonOpticks, Australia) on an EASY-nLC 1200 system coupled to an Orbitrap™ Fusion Lumos mass spectrometer (Thermo Fisher Scientific, USA). […] The Proteome Discoverer™ 2.1 software and the SEQUEST algorithm was used for protein identification and relative quantification. Log2 fold changes of protein abundances and p-values were calculated in Python and R with the limma package (Ritchie M E et al. Limma powers differential expression analyses for RNA-sequencing and microarray studies. Nucleic Acids Res. 2015, 43(7):e47).

[2] = biological target: CRBN (Homo sapiens, UniProt Q96SW2); assay: CRBN displacement assay Format 1 (fluorescence polarization, BodipyFL-lenalidomide probe Compound HH); assay type: binding
CRBN, sequence (Q96SW2 whole entry): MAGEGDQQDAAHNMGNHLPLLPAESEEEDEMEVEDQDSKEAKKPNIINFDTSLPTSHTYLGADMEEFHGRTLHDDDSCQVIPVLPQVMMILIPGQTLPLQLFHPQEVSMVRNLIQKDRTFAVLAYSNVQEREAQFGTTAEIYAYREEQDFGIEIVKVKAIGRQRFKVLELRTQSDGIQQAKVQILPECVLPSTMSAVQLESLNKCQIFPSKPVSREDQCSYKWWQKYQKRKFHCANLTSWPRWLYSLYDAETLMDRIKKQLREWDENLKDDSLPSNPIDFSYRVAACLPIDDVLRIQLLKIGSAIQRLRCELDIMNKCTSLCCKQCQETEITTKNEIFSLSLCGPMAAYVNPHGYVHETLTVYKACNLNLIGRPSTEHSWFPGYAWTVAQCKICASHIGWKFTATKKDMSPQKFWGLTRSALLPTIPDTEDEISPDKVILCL
Outline: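 Fluorescence polarization competition: CRBN (nominal 100 nM final) pre-incubated 45 min at room temperature with compound, then BodipyFL-lenalidomide probe added (5 nM final; 0.9% DMSO).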

Structure (SMILES): COc1ccc(C(=O)N2CCC3(CCN(C(=O)CCCCCCCN4CCN(c5cc(Nc6ncc(C(=O)Nc7c(C)cccc7Cl)s6)nc(C)n5)CC4)CC3)CC2)cc1N1CCC(=O)NC1=O [compound 06, N-(2-chloro-6-methylphenyl)-2-((6-(4-(8-(9-(3-(2,4-dioxotetrahydropyrimidin-1(2H)-yl)-4-methoxybenzoyl)-3,9-diazaspiro[5.5]undecan-3-yl)-8-oxooctyl)piperazin-1-yl)-2-methylpyrimidin-4-yl)amino)thiazole-5-carboxamide]
- degradation of bound kinase targets (proteomics) [1]: able to degrade several of the targets to which they bind
- AC50 [2]: 162 nM

Structure (SMILES): COc1ccc(C(=O)N2CCC3(CCN(C(=O)CN4CCN(c5cc(Nc6ncc(C(=O)Nc7c(C)cccc7Cl)s6)nc(C)n5)CC4)CC3)CC2)cc1N1CCC(=O)NC1=O [compound 07, N-(2-chloro-6-methylphenyl)-2-((6-(4-(2-(9-(3-(2,4-dioxotetrahydropyrimidin-1(2H)-yl)-4-methoxybenzoyl)-3,9-diazaspiro[5.5]undecan-3-yl)-2-oxoethyl)piperazin-1-yl)-2-methylpyrimidin-4-yl)amino)thiazole-5-carboxamide]
- degradation of bound kinase targets (proteomics) [1]: able to degrade several of the targets to which they bind
- AC50 [2]: 496 nM
